According to ChEMBL document CHEMBL2331182, “Discovery of a small-molecule antiviral targeting the HIV-1 matrix protein” (Bioorg Med Chem Lett, 2013):

What was measured:
[1] = target: T1, Structural capsid protein (Human immunodeficiency virus 1, UniProt Q76129); test: Inhibition of HIV1 capsid
[2] = target: T1, Structural capsid protein; test: Binding affinity to HIV1 capsid

T1 sequence (Q76129 whole entry): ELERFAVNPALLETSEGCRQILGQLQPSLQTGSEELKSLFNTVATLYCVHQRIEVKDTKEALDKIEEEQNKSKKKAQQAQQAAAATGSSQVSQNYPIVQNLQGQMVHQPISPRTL

SMILES: Cc1ccc(NC(=O)NCCSCc2ccc(CN(C)C)o2)cc1Cl
- IC50 [1]: 60 µM
- Kd [2]: 800 µM
